Laboratory results from patent USRE47193E1, “Selectively substituted quinoline compounds” (EISAI R&D MANAGEMENT CO., LTD., priority 2013, dated 2019).
Like-named read-outs stand apart in the source and are kept apart here.

How the values were obtained:
[1] = target: T1, human TLR8 (Homo sapiens, UniProt Q9NR97); test: HEK-293 human TLR8 NF-kappaB luciferase reporter assay (CL097); assay type: cell-based
T1 construct: host or cells: HEK-293, then stably transfected with pNiFty2(NF-kappaB)-luciferase reporter
T1 sequence (Q9NR97 27-1041): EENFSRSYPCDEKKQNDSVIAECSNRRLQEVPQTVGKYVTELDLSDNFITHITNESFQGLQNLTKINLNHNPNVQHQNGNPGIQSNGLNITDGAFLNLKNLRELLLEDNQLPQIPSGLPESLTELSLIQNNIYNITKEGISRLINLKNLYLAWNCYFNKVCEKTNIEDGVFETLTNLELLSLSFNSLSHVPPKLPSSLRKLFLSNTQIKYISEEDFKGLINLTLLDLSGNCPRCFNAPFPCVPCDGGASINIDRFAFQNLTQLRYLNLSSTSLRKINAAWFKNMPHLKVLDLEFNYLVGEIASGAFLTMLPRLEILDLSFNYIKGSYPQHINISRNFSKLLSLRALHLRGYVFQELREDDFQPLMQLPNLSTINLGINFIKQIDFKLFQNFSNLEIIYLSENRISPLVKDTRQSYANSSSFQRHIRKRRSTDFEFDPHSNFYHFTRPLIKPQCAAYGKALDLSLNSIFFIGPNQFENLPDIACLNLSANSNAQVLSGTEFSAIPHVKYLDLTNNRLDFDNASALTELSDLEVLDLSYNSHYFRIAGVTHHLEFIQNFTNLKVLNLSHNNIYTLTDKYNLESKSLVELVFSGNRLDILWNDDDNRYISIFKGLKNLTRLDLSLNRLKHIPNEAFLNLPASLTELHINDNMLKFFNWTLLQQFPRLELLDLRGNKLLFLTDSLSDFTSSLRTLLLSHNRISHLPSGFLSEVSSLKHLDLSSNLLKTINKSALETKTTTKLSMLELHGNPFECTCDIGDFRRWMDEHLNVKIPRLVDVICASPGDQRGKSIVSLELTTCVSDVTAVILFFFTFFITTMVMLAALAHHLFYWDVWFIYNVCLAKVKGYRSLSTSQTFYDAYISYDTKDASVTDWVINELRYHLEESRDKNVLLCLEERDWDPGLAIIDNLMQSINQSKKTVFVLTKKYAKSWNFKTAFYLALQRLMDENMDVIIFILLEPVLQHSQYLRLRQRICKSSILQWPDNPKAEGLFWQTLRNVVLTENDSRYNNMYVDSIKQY
Procedure: Effects on mouse TLR7 were also compared. Cells were stimulated overnight with TLR7/8 agonist CL097 at pre-determined ED70-80: 3 ug/ml for HEK-hTLR7, 1.5 ug/ml for HEK-mTLR7 and 12 ug/ml for HEK-hTLR8, before reading luminescence intensity. Three tests were performed and IC50 value was determined using Graphpad Prism 6 nonlinear regression curve fit.
HEK-293 cells (ATCC) were engineered to stably express a NF-kappaB transcription factor inducible E-selectin (ELAM-1) luciferase reporter derived from the plasmid pGL3 (Promega) containing base pairs −2241 bp to −254 bp from the promoter of the human E-selectin gene (Accession No. NM_000450). These cells were then subsequently engineered to stably and individually express human TLR4, TLR7 or TLR9 full-length ORF cDNAs. Human TLR4 cDNA (Accession No. NM_138554) was cloned into pcDNA 3.0 expression vector (Invitrogen). TLR4 transfected cells were also engineered to express human MD-2 co-receptor [MD-2 cDNA (Accession No. NM_015364) was cloned into the pEF-BOS vector] and were supplemented with 10 nM soluble CD14 (R&D Systems) in the media to optimize LPS responsiveness. Human TLR9 cDNA (Accession No. NM_017442) was cloned into the pBluescript II KS vector (Agilent). Human TLR7 cDNA (Accession No. NM_016562) was obtained from OriGene. HEK-293 cells stably expressing human TLR8 (Accession No. NM_138636) or mouse TLR7 (Accession No. NM_133211) were purchased from InvivoGen and were then stably transfected with pNiFty2(NF-kappaB)-luciferase reporter plasmid (InvivoGen). Each cell type was plated in Dulbecco's modified Eagle's medium (DMEM) containing 10% fetal bovine serum (FBS) at a density of 2.22×10^5 cells/ml into a 384-well plate and incubated for 2 days at 37° C., 5% CO2. Varying concentrations of antagonist compounds were then added. Cells were then incubated for another 30 minutes before adding the appropriate TLR agonist as follows (final concentrations indicated): lipopolysaccharide (LPS; Sigma) at 10 ng/ml for TLR4, CL097 (InvivoGen) at 3 ug/ml for human TLR7 and TLR8 and mouse TLR7, and CvG-2006-2A [sequence: […] (SEQ ID NO: 1) with phosphorothioate backbone, synthesized by Sigma-Aldrich] at 0.6 uM for TLR9.

[2] = tested on: Human TLR7/8; test: Human PBMC cell-based assay, TLR7/8 stimulus (RNA-Ig), cytokine ELISA
Summary of the method: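 The agonist was RNA-Ig, a U1 snRNA-derived 26-mer RNA (2.5 μM) complexed with RNA-cross-reacting anti-ssDNA mAb (1:25 or 1 ug/ml), added after 30 min compound pre-incubation (0.1% DMSO). Density-gradient PBMC from healthy donors, 2×10^5/well, were stimulated 20 h at 37 °C; cytokines quantified by ELISA.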

[3] = target: T2, mouse TLR7 (Mus musculus, UniProt P58681); test: Short-term in vivo (STIV) assay: oral dosing, R848 s.c., plasma IL-6; set-up: female BALB/c mice (Jackson Labs, Bar Harbor, Me.) were dosed by oral gavage; tissue Jackson Labs; host or cells: living female BALB/c mice; plasma IL-6 after s.c. R848
T2 sequence (P58681 27-1050): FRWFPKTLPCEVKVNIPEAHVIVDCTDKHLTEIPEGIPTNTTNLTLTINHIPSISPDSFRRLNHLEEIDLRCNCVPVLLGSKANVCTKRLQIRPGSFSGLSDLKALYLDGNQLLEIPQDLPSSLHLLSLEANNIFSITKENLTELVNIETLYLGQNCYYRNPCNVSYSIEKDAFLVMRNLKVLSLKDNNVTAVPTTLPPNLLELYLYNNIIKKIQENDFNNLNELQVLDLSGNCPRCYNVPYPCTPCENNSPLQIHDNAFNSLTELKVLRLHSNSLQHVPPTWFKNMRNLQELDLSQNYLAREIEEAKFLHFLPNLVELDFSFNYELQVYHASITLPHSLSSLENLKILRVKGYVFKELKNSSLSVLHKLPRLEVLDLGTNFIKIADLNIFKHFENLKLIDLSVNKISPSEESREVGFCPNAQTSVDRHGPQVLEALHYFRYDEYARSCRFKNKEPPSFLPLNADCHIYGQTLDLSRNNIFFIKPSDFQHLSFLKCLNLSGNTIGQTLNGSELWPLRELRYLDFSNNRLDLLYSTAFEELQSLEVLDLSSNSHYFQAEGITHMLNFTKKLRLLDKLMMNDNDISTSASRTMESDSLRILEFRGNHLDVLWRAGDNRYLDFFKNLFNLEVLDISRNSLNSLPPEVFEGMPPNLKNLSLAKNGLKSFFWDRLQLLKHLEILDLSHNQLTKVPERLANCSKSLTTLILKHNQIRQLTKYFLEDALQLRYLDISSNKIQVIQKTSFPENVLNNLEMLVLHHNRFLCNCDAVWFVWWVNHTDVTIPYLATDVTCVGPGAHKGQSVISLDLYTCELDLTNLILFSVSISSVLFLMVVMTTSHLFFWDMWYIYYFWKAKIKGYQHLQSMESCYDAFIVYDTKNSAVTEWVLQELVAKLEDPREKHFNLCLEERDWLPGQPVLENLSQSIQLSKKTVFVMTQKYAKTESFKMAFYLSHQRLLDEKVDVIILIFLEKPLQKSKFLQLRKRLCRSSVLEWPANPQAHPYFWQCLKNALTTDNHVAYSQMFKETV
Procedure: Figure Legend: Female BALB/c mice were dosed by oral gavage with Vehicle alone (0.5% aqueous methyl-cellulose) or compound formulated in Vehicle at 33 mg/kg, 100 mg/kg or 300 mg/kg. […] (FIG. 1A).
Short-term in vivo (STIV) assay: To assess compound potency in vivo against mouse TLR7, a short-term in vivo (STIV) assay was utilized. Briefly, mice were orally dosed with compounds and at various time points afterwards were injected subcutaneously with agonist R848 to stimulate TLR7. The plasma IL-6 level following R848 stimulation was then measured by ELISA to assess compound potency and duration-of-action.
Short-term in vivo (STIV) assay. Six to eight week old female BALB/c mice (Jackson Labs, Bar Harbor, Me.) were dosed by oral gavage in 200 ul volume with antagonist compounds formulated in 0.5% aqueous methyl-cellulose (Sigma, St. Louis, Mo.). At various time points afterwards, mice were injected subcutaneously (s.c.) in 100 ul volume with 15 ug R848 (Resiquimod; GLSynthesis, Worcester, Mass.) to stimulate TLR7.

[4] = HEK-293 assay format, read-out: HEK/hTLR8 IC50
[5] = primary human PBMC assay, TLR7/8 potency; ligand not given; read-out: Human PBMCs IC50

SMILES | IC50 [1, 4] [nM] | IC50 [2, 5] [nM] | % Suppression vs. Vehicle ([3]; 13 h, 100 mg/kg) [%] | other results
C[C@@H]1CN(c2ccc(C#N)c3ncccc23)C[C@H](COc2ccccc2)O1 [ER-886514] | 5 |  |  | 
C[C@@H]1CN(c2ccc(C#N)c3ncccc23)C[C@H](C(=O)CCc2ccccc2)O1 [ER-886629] | 5 |  |  | 
CC1CCCCC1NC[C@H]1CN(c2ccc(C#N)c3ncccc23)C[C@@H](C)O1 (stereo partly drawn) [ER-887539] | 0.5 |  |  | 
C[C@@H]1CN(c2ccc(C#N)c3ncccc23)C[C@H](CN2CCC[C@@H](N)C2)O1 [ER-887928] | 11 |  |  | 
C[C@@H]1CN(c2ccc(C#N)c3ncccc23)C[C@H](CNC2CCCCCC2)O1 [ER-887444] | 193 |  |  | 
C[C@@H]1CN(c2ccc(C#N)c3ncccc23)C[C@H](CNCc2ccccc2)O1 [ER-886509] |  |  |  | IC50 ([1]; HEK/hTLR8 IC50, HEK-293 assay format): 119 nM
CCCCC(O)C1CN(c2ccc(C#N)c3ncccc23)CC(C)O1 (single isomer, unassigned) [ER-886530] | 5 |  |  | 
C[C@@H]1CN(c2ccc(C#N)c3ncccc23)C[C@H](CN2CCCC2)O1 [ER-886507] | 182 |  |  | 
CC1CN(c2ccc(C#N)c3ncccc23)CC(C(O)C2CCCCC2)O1 (single isomer, unassigned) [ER-886533] | 14 |  |  | 
C[C@@H]1CN(c2ccc(C#N)c3ncccc23)C[C@H](CF)O1 [ER-885621] | 25 |  |  | 
C[C@H]1CN(c2ccc(C#N)c3ncccc23)C[C@H](C)O1 [ER-880191] | 10 |  |  | 
C[C@@H]1CN(c2ccc(C#N)c3ncccc23)C[C@H](CNC(=O)C(C)(C)C)O1 [ER-879713] | 80 |  |  | 
CCN(CC)C[C@H]1CN(c2ccc(C#N)c3ncccc23)C[C@@H](C)O1 [ER-886508] | 186 |  |  | 
C[C@@H]1CN(c2ccc(C#N)c3ncccc23)C[C@H](COCC2CCCCC2)O1 [ER-885930] | 147 |  |  | 
CC1CN(c2ccc(C#N)c3ncccc23)CC(C(=O)NC2CNCCC2F)O1.Cl (mixture of isomers) [ER-899477] |  | 6 | 68 | % Suppression vs. Vehicle ([3]; 6 h, 100 mg/kg): 96%
C[C@@H]1CN(c2ccc(C#N)c3ncccc23)C[C@H](CN2CCN(C)[C@H](C)C2)O1 [ER-890346] |  | 6 |  | % Suppression vs. Vehicle ([3]; 3 h, 33 mg/kg): 99%; % Suppression vs. Vehicle ([3]; 19 h, 11 mg/kg): 0%; % Suppression vs. Vehicle ([3]; 19 h, 33 mg/kg): 20%
C[C@@H]1CN(c2ccc(C#N)c3ncccc23)C[C@H](C(=O)NC2CCN(CC(N)=O)CC2)O1 [ER-899481] |  | 8 | 5 | % Suppression vs. Vehicle ([3]; 6 h, 100 mg/kg): 54%
C[C@@H]1CN(c2ccc(C#N)c3ncccc23)C[C@H](C(=O)N(C)[C@H]2CCCNC2)O1 [ER-899619] |  | 33 | 35 | % Suppression vs. Vehicle ([3]; 6 h, 100 mg/kg): 79%
CC1CN(c2ccc(C#N)c3ncccc23)CC(C(=O)N2CCC3(CCNCC3)CC2)O1 (stereo not drawn) [ER-899193] |  | 9 | 52 | % Suppression vs. Vehicle ([3]; 6 h, 100 mg/kg): 43%
CCNC(=O)C1CN(c2ccc(C#N)c3ncccc23)CC(C)O1 (stereo not drawn) [ER-894550] |  | 97 | 97 | % Suppression vs. Vehicle ([3]; 6 h, 33 mg/kg): 98%; % Suppression vs. Vehicle ([3]; 13 h, 33 mg/kg): 72%; % Suppression vs. Vehicle ([3]; 13 h, 300 mg/kg): 99%; % Suppression vs. Vehicle ([3]; 24 h, 33 mg/kg): 48%; % Suppression vs. Vehicle ([3]; 24 h, 100 mg/kg): 71%; % Suppression vs. Vehicle ([3]; 24 h, 300 mg/kg): 99%
CC1CN(c2ccc(C#N)c3ncccc23)CC(C(=O)N2CC3(CCNC3)C2)O1 (stereo not drawn) [ER-899017] |  | 4 | 0 | % Suppression vs. Vehicle ([3]; 6 h, 33 mg/kg): 34%; % Suppression vs. Vehicle ([3]; 13 h, 33 mg/kg): 0%; % Suppression vs. Vehicle ([3]; 13 h, 300 mg/kg): 10%; % Suppression vs. Vehicle ([3]; 24 h, 100 mg/kg): 0%; % Suppression vs. Vehicle ([3]; 24 h, 300 mg/kg): 0%
CC1CN(c2ccc(C#N)c3ncccc23)CC(C(=O)NC2CNCC2F)O1 (stereo not drawn) [ER-899476] |  |  | 65 | IC50 ([2]; read-out: Human PBMCs IC50; primary human PBMC assay, TLR7/8 potency; ligand not given): 3 nM; % Suppression vs. Vehicle ([3]; 6 h, 100 mg/kg): 99%
